Key:
[1] = compound: CCNC(=O)C#Cc1ccc2c(C(=Nc3ccc(CN(C)C)cc3)c3ccccc3)c(O)[nH]c2c1; experiment: absolute IC70 (antiproliferative, propidium iodide); higher = less potent; settings: exposure time: 4 days
Protocol: (§1)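 Modified propidium iodide survival/proliferation assay in 294 human tumor cell lines (2D monolayer for solid tumors, suspension for hematologic lines) after 4 days of continuous exposure to 10 concentrations in half-log steps from 0.001 to 30 µM. Absolute IC70 was fitted by four-parameter nonlinear regression of T/C × 100 (%) values; 30 µM is the top dose.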

[2] = compound: O=C(NOCCO)c1ccc2cncn2c1Nc1ccc(I)cc1F [GDC-0623]; experiment: as above; settings: exposure time: 4 days
Protocol: as §1

Test System	absolute IC70 [1] [µM]	absolute IC70 [2] [µM]
SK-MES-1	0.617	0.235
MEXF_2090	0.093	0.004
SW1463	0.323	0.0143
LXFA_1647	0.248	0.221
SNU-1	3	> 30
EFO-27	0.724	> 30
MKN7	17.5	> 30
MEC-1	0.034	> 30
SNU-601	3	> 30
EFO-21	2.14	> 30
MEXF_1737	0.048	0.011
MDA-MB-468	0.347	2.24
COLO-678	3	> 30
CXF_280	1.55	> 30
KM12	0.386	15.1
SK-LMS-1	0.937	0.368
SNU-878	9.32	18.8
LIM2551	0.00749	0.00368
MEXF_276	0.038	0.008
NCI-H1184	0.815	> 30
IM95	12.2	> 30
LXFA_737	0.225	> 30
PXF_1118	1.55	> 30
PAXF_1657	0.564	0.26

Test System	absolute IC70 [1] [µM]	absolute IC70 [2] [µM]
U-2-OS	0.162	0.53
RT112	0.042	> 30
OCI-AML2	0.007	< 0.001
SiHa	4.8	> 30
OVCAR-4	4.29	> 30
HUP-T3	0.291	0.044
SW480	0.101	0.0239
TFK-1	3.45	> 30
UO-31	0.527	1.62
BXF_1352	0.045	0.011
LXFA_526	0.739	1.32
GXA_3013	3.28	> 30
RXF_393	0.869	15.1
A204	0.614	> 30
TT2609-C02	0.018	0.012
THP-1	0.084	0.047
DETROIT562	3.09	> 30
MV4-11	0.008	1.32
SNU-16	15.4	> 30
BXF_1228	3.23	> 30
RXF_2282	0.026	> 30
MCF 10A	0.031	0.048
OCUM-1	0.025	0.011
CXF_94	0.554	0.167

Test System	absolute IC70 [1] [µM]	absolute IC70 [2] [µM]
JURKAT	2.33	> 30
SNB-75	1.1	2.68
LS174T	0.0404	0.0723
SISO	0.715	> 30
GXF_1172	0.51	1.27
WSU-DLCL2	0.892	> 30
EJM	2.82	> 30
A-253	> 30	> 30
MDA-MB-231	0.12	0.078
HT-1080	0.71	0.279
KYSE-150	2.82	> 30
OVCAR-8	2.8	> 30
MOLT-3	0.006	> 30
KU-19-19	0.056	0.022
PC-9	0.622	> 30
EVSA-T	2.24	> 30
MM.1S	0.009	> 30
CAKI-1	2.36	> 30
LEXFAL_2665	0.223	> 30
RPMI-8226	1.58	> 30
MEXF_1792	0.462	0.169
NCI-H1299	1.18	> 30
RXF_2516	0.164	8.07
MEXF_1539	0.039	0.003

Reference: the supplement of paper PMC10599287
